Measurements from patent US9321790B2, “Pyrimidinone derivatives as antimalarial agents” (SANOFI, priority 2012, dated 2016).

How the values were obtained:
[1] = system: Plasmodium falciparum (strain NF54); test: Antimalarial activity test: growth of Plasmodium falciparum in infected human erythrocytes, 3H-hypoxanthine incorporation; format: cell-based; details: Plasmodium falciparum, Erythrocyte, strain NF54 sensitive to chloroquine, 72 h total incubation
Procedure: The compounds according to the invention underwent pharmacological trials to determine their inhibitory effect on the growth of Plasmodium falciparum (strain NF54 sensitive to inhibition with chloroquine) in an in vitro test using infected human erythrocytes. The growth of the parasites is measured via the incorporation of tritiated hypoxanthine compared with the incorporation in the absence of drug. The tests are performed in 96-well microplates (Falcon™ 96-well microtiter plates, ref. No. 353072) in RPMI 1640 solutions (10.44 g/l) (without hypoxanthine) with HEPES (5.94 g/l), NaHCO3 (2.1 g/l), neomycin ([…])+AlbumaxR II (5 g/l) supplemented with human erythrocytes with a final hematocrit of 1.25% and a final parasitemia of 0.15%.
The stock solution of the compounds is prepared at 10 mg/mL in DMSO. For the test, fresh solutions at the desired concentrations are prepared in RPMI medium. For the test, 100 μl of compound are mixed with 100 μl of infected blood. For the determination of the IC50 values, the compounds are tested in twofold serial dilution.
The plates are incubated at 37° C. under a humid atmosphere with 93% N2, 4% CO2 and 3% O2. After 48 hours, 50 μl of ^3H-hypoxanthine (=0.5 μCi) in RPMI medium are added to each well and incubation is continued for a further 24 hours. Next, the plates are washed with distilled water and the cell lyzate is transferred onto fiberglass filters. The filters are dried and the radioactivity is determined by liquid scintillation. The results in cpm are converted into percentages of inhibition. The inhibitory activity is given by the concentration that inhibits 50% of the growth of the parasite relative to a control without compound.

[2] = target: human PI3Kα (Homo sapiens (Human), UniProt P42336); test: Human PI3Kα activity test (luciferin/luciferase ATP consumption, KinaseGlo); format: biochemical; details: PI3Kα (p110α/p85α), 50 μM PIP2, 2 μM ATP, 90 minutes; read-out: IC50 Human PI3Kα
Sequence of human PI3Kα (P42336 whole entry): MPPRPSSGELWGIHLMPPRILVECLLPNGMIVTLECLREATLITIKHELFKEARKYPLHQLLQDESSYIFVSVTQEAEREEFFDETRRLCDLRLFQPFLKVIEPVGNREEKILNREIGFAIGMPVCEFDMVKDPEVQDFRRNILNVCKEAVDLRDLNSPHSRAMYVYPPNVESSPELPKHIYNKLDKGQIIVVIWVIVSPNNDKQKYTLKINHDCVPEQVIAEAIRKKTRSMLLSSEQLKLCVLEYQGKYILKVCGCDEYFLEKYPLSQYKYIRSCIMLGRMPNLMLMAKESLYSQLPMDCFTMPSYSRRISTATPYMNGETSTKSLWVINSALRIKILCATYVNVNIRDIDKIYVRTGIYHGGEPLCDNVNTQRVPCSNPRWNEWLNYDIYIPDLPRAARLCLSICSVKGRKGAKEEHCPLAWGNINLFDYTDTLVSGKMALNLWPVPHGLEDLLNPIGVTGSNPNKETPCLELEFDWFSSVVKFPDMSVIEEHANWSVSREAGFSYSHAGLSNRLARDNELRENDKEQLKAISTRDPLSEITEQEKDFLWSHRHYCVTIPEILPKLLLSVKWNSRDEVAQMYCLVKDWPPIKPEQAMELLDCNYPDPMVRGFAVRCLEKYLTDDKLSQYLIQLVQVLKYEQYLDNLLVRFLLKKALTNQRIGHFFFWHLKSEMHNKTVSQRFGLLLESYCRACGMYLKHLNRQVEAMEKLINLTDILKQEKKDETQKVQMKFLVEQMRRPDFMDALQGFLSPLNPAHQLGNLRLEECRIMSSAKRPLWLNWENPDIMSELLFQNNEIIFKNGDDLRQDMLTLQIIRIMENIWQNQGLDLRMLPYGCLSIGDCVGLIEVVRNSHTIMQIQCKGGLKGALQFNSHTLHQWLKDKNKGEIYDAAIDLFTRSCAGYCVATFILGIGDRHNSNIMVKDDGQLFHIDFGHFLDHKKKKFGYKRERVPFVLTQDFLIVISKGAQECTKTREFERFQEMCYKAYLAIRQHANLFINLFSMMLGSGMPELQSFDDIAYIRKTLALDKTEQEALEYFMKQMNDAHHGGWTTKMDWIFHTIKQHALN
Sequence of human PI3Kα (P27986 whole entry partner): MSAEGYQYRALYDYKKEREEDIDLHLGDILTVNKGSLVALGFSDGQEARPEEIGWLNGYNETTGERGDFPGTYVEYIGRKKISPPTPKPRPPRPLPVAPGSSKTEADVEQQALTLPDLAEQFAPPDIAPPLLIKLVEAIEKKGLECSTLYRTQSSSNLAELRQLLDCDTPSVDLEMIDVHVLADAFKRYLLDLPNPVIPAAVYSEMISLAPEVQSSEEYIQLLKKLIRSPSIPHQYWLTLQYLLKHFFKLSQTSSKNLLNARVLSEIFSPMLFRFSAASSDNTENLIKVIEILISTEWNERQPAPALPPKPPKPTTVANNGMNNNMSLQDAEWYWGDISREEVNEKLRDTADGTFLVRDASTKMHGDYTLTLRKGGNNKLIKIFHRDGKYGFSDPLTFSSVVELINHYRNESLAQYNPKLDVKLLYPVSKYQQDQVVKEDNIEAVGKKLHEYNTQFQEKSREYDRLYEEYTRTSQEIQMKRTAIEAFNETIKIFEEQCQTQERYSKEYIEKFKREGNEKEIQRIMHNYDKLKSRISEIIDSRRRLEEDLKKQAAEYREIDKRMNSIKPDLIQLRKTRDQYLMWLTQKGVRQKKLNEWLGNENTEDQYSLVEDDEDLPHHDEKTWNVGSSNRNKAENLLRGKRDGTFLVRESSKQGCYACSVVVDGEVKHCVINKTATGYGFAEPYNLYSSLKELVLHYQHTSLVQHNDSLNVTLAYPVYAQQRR
Procedure: The test uses a luciferin/luciferase system to measure the concentration of ATP and its consumption during the enzymatic reaction.
After 90 minutes, the reaction is quenched by adding 20 μl/well of KinaseGlo reagent (Promega V6713). After 10 minutes in the dark, the luminescence is read using a PHERAStar microplate reader (reading at 0.8 sec/well).

Row | SMILES | IC50 [1] [nM] | IC50 [2] [nM]
1 | O=c1cc(N2C[C@@H]3C[C@H]2CO3)nc2n1CC[C@@H](C(F)(F)F)N2CC1(O)CC1 [Compound 104, (8S)-9-(1-hydroxycyclopropylmethyl)-2-(1S,4S)-2-oxa-5-azabicyclo[2.2.1]hept-5-yl-8-trifluoromethyl-6,7,8,9-tetrahydropyrimido[1,2-a]pyrimidin-4-one] | 12 | 930
2 | CN(C)c1ccc(C(=O)CN2c3nc(N4C[C@@H]5C[C@H]4CO5)cc(=O)n3C[C@@]2(C)C(F)(F)F)cn1 [Compound 8, 1-[2-(6-Dimethylaminopyrid-3-yl)-2-oxoethyl]-2-(S)-methyl-7-(1S,4S)-2-oxa-5-azabicyclo[2.2.1]hept-5-yl-2-trifluoromethyl-2,3-dihydro-1H-imidazo[1,2-a]pyrimidin-5-one] | > 200 | > 10000
3 | CCOC(=O)Nc1ccc(C(=O)CN2c3nc(N4C[C@@H]5C[C@H]4CO5)cc(=O)n3CC[C@H]2C(F)(F)F)cn1 [Compound 57, ethyl {5-[2-((S)8-(1S,4S)-2-oxa-5-azabicyclo[2.2.]hept-5-yl-6-oxo-2-trifluoromethyl-3,4-dihydro-2H,6H-pyrimido[1,2-a]pyrimidin-1-yl)acetyl]pyrid-2-yl}carbamate] | 65 | > 10000
4 | Cn1nccc1C(=O)CN1c2nc(N3C[C@@H]4C[C@H]3CO4)cc(=O)n2CC[C@H]1C(F)(F)F [Compound 69, (8S)-9-[2-(2-methyl-2H-pyrazol-3-yl)-2-oxoethyl]-2-(1S,4S)-2-oxa-5-azabicyclo[2.2.1]hept-5-yl-8-trifluoromethyl-6,7,8,9-tetrahydropyrimido[1,2-a]pyrimidin-4-one] | 96 | > 10000
5 | O=c1cc(N2C[C@@H]3C[C@H]2CO3)nc2n1CC[C@@H](C(F)(F)F)N2CCC(O)(C1CC1)C1CC1 [Compound 102, (8S)-9-(3,3-Dicyclopropyl-3-hydroxypropyl)-2-(1S,4S)-2-oxa-5-azabicyclo[2.2.1]hept-5-yl-8-trifluoromethyl-6,7,8,9-tetrahydropyrimido[1,2-a]pyrimidin-4-one] | 5 | 2500
6 | CN(C)CCOc1ccc(CCN2c3nc(N4C[C@@H]5C[C@H]4CO5)cc(=O)n3CC[C@H]2C(F)(F)F)cc1 [Compound 117, (8S)-9-{2-[4-(2-Dimethylaminoethoxyl)phenyl]ethyl}-2-(1S,4S)-2-oxa-5-azabicyclo[2.2.1]hept-5-yl-8-trifluoromethyl-6,7,8,9-tetrahydropyrimido[1,2-a]pyrimidin-4-one] | 6 | 380
7 | O=c1cc(N2C[C@@H]3C[C@H]2CO3)nc2n1CC[C@@H](C(F)(F)F)N2CCc1ccc(OCCN2CCOCC2)cc1 [Compound 111, (8S)-9-{2-[4-(2-Morpholin-4-ylethoxy)phenyl]ethyl}-2-(1S,4S)-2-oxa-5-azabicyclo[2.2.1]hept-5-yl-8-trifluoromethyl-6,7,8,9-tetrahydropyrimido[1,2-a]pyrimidin-4-one] | 5 | 330
8 | C[C@@]1(C(F)(F)F)Cn2c(nc(N3CC4CCC(C3)O4)cc2=O)N1CCc1ccc(O)cc1 [Compound 72, (S)-1-[2-(4-hydroxyphenyl)ethyl]-2-methyl-7-(8-oxa-3-azabicyclo[3.2.1]oct-3-yl)-2-trifluoromethyl-2,3-dihydro-1H-imidazo[1,2-a]pyrimidin-5-one] | 37 | 730
9 | O=C(CN1c2nc(N3CC4CCC(C3)O4)cc(=O)n2CC[C@H]1C(F)(F)F)c1ccccn1 [Compound 88, (8S)-2-(8-Oxa-3-azabicyclo[3.2.1]oct-3-yl)-9-(2-oxo-2-pyrid-2-ylethyl)-8-trifluoromethyl-6,7,8,9-tetrahydropyrimido[1,2-a]pyrimidin-4-one] | 140 | 1300
10 | O=C(CN1c2nc(N3CC4CCC(C3)O4)cc(=O)n2CC[C@H]1C(F)(F)F)c1ccncc1 [Compound 75, (8S)-2-(8-oxa-3-azabicyclo[3.2.1]oct-3-yl)-9-(2-oxo-2-pyrid-4-ylethyl)-8-trifluoromethyl-6,7,8,9-tetrahydropyrimido[1,2-a]pyrimidin-4-one] | 80 | ≥ 10000
11 | CC(C)(C)C(=O)CN1c2nc(N3C[C@@H]4C[C@H]3CO4)cc(=O)n2CC[C@H]1C(F)(F)F [Compound 29, (8S)-9-(3,3-dimethyl-2-oxobutyl)-2-(1S,4S)-2-oxa-5-azabicyclo[2.2.1]hept-5-yl-8-trifluoromethyl-6,7,8,9-tetrahydropyrimido[1,2-a]pyrimidin-4-one] | 46 | 7930
12 | C[C@@]1(C(F)(F)F)Cn2c(nc(N3C[C@@H]4C[C@H]3CO4)cc2=O)N1CC(=O)c1ccc(N)nc1 [Compound 11, (S)-1-[2-(6-Aminopyrid-3-yl)-2-oxoethyl]-2-methyl-7-(1S,4S)-2-oxa-5-azabicyclo[2.2.1]hept-5-yl-2-trifluoromethyl-2,3-dihydro-1H-imidazo[1,2-a]pyrimidin-5-one] | 40 | ≥ 10000
13 | Cc1nc(CN2c3nc(N4C[C@@H]5C[C@H]4CO5)cc(=O)n3CC[C@H]2C(F)(F)F)no1 [Compound 59, (8S)-9-(5-Methyl-[1,2,4]oxadiazol-3-ylmethyl)-2-(1S,4S)-2-oxa-5-azabicyclo[2.2.1]hept-5-yl-8-trifluoromethyl-6,7,8,9-tetrahydropyrimido[1,2-a]pyrimidin-4-one] | 87 | > 10000
14 | O=CN1CCC(CN2c3nc(N4C[C@@H]5C[C@H]4CO5)cc(=O)n3CC[C@H]2C(F)(F)F)CC1 [Compound 95, 4-((2S)-8-(1S,4S)-2-oxa-5-azabicyclo[2.2.1]hept-5-yl-6-oxo-2-trifluoromethyl-3,4-dihydro-2H,6H-pyrimido[1,2-a]pyrimidin-1-ylmethyl)piperidine-1-carbaldehyde] | 7 | 180
15 | O=c1cc(N2CC3CCC(C2)O3)nc2n1CC[C@@H](C(F)(F)F)N2CCCc1ccccc1 [Compound 84, (8S)-2-(8-oxa-3-azabicyclo[3.2.1]oct-3-yl)-9-(3-phenylpropyl)-8-trifluoromethyl-6,7,8,9-tetrahydropyrimido[1,2-a]pyrimidin-4-one] | 110 | 200
16 | C[C@@]1(C(F)(F)F)Cn2c(nc(N3CC4CCC(C3)O4)cc2=O)N1C[C@@H](O)c1ccccc1 [Compound 79, (2S)-1-((S)-2-Hydroxy-2-phenylethyl)-2-methyl-7-(8-oxa-3-azabicyclo[3.2.1]oct-3-yl)-2-trifluoromethyl-2,3-dihydro-1H-imidazo[1,2-a]pyrimidin-5-one] | 640 | 1600
17 | O=C(CN1c2nc(N3C[C@@H]4C[C@H]3CO4)cc(=O)n2CC[C@H]1C(F)(F)F)c1ccc2nsnc2c1 [Compound 61, (8S)-9-(2-Benzo[1,2,5]thiadiazol-5-yl-2-oxoethyl)-2-(1S,4S)-2-oxa-5-azabicyclo[2.2.1]hept-5-yl-8-trifluoromethyl-6,7,8,9-tetrahydropyrimido[1,2-a]pyrimidin-4-one] | 130 | > 10000
18 | O=C(CN1c2nc(N3C[C@@H]4C[C@H]3CO4)cc(=O)n2CC[C@H]1C(F)(F)F)c1ccc(F)c(F)c1 [Compound 40, (S)-9-[2-(3,4-Difluorophenyl)-2-oxoethyl]-2-(1S,4S)-2-oxa-5-azabicyclo[2.2.1]hept-5-yl-8-trifluoromethyl-6,7,8,9-tetrahydropyrimido[1,2-a]pyrimidin-4-one] | 80 | > 10000
19 | O=C(CN1c2nc(N3C[C@@H]4C[C@H]3CO4)cc(=O)n2CC[C@H]1C(F)(F)F)c1ccc(NC2CC2)nc1 [Compound 22, (8S)-9-[2-(6-Cyclopropylaminopyrid-3-yl)-2-oxoethyl]-2-(1S,4S)-2-oxa-5-azabicyclo[2.2.1]hept-5-yl-8-trifluoromethyl-6,7,8,9-tetrahydropyrimido[1,2-a]pyrimidin-4-one] | > 200 | > 10000
20 | Cc1ncsc1CCN1c2nc(N3C[C@@H]4C[C@H]3CO4)cc(=O)n2CC[C@H]1C(F)(F)F [Compound 25, (8S)-9-[2-(4-Methylthiazol-5-yl)ethyl]-2-(1S,4S)-2-oxa-5-azabicyclo[2.2.1]hept-5-yl-8-trifluoromethyl-6,7,8,9-tetrahydropyrimido[1,2-a]pyrimidin-4-one] | < 3.4 | 1000
21 | COc1ccc(CCN2c3nc(N4CC5CCC(C4)O5)cc(=O)n3C[C@@]2(C)C(F)(F)F)cc1 [Compound 76, (S)-1-[2-(4-Methoxyphenyl)ethyl]-2-methyl-7-(8-oxa-3-azabicyclo[3.2.1]oct-3-yl)-2-trifluoromethyl-2,3-dihydro-1H-imidazo[1,2-a]pyrimidin-5-one] | 93 | 950
